Results on five molecules are retold here after patent publication US20240210412A1, “SULFONYL-TRIAZOLE COMPOUNDS USEFUL AS LIGANDS AND INHIBITORS OF PROSTAGLANDIN REDUCTASE 2” (University of Virginia Patent Foundation, priority 2021, published 2024).

“Also recorded” adds a separate entry of the source.

For one experiment, the system named is Q9Y5K3. Description: SILAC LC-MS ABPP. Type of experiment: cell-based, human. Particulars: 25 μM 2 h, live DM93 cells. How it is done: (§1) Cells were grown to 90-95% confluence before being washed once with warm, sterile DPBS (1×, 5 mL), followed by addition of 10 mL of serum-free media (supplemented with 1% L-glutamine) containing either DMSO or SuTEx fragment (in DMSO) was added. Light cells were treated with DMSO vehicle while the heavy cells were treated with DMSO or SuTEx fragment (in DMSO) and incubated for 2 hrs. After 2 hrs, the cells were treated with SuTEx alkyne probe (HHS475, 10 μL of 1000× DMSO stock) and incubated for an additional 2 hrs. The media was aspirated and cells washed with cold PBS (5 mL) and harvested. Cells were spun at 500×g for 5 min at 4° C. followed by removal of supernatant. Pellets were resuspended in 1 mL of cold DPBS and spun at 1,400×g for 3 min at 4° C. followed by removal of supernatant. The cells were lysed in PBS by sonication and fractionated (100,000×g, 45 min, 4° C.).The light and heavy soluble fractions were diluted to 2.3 mg/mL in PBS and 432 μL were used for analysis (1 mg total protein). The probe-modified proteomes were conjugated to desthiobiotin-PEG3-azide (10 μl of 10 mM stock in DMSO; 200 μM final concentration) using TCEP (10 μl of fresh 50 mM stock in water, 1 mM final concentration), TBTA ligand (33 μl of a 1.7 mM 4:1 t-butanol/DMSO stock, 100 μM final concentration) and CuSO4 (10 μl of 50 mM stock, 1 mM final concentration). Samples were vortexed to mix and incubated for 1 hr at room temperature. The heavy and light proteomes were mixed 1:1 and the subsequent steps, including LC-MS/MS data analysis, were performed as previously described^[8a].
(§2) Coupling cell-based screens with chemical proteomics can facilitate the identification of target protein and binding sites that engage and are irreversibly modified by covalent ligands^[12]. In these assays, covalent ligands block SuTEx activity-based probe (ABP) labeling at protein sites, and the competition of probe labeling can be used to quantify potency and selectivity across the proteome^[10a]. To facilitate quantitative chemical proteomics, DM93 melanoma cells were cultured using stable isotopic labeling by amino acids in cell culture (SILAC)^[13]. Cells cultured in “light” media were treated with dimethyl sulfoxide (DMSO) vehicle while cells cultured in “heavy” media were treated with SuTEx ligand (25 μM, 2 hours, 37° C.). Next, cells were treated with HHS-475 probe (100 μM, 2 hours, 37° C.) followed by lysis and processing of proteomes for analysis. Probe-modified proteins from the soluble fraction were conjugated to a desthiobiotin-azide tag by copper-catalyzed azide-alkyne cycloaddition (CuAAC)^[14] followed by mixing of the light and heavy proteomes. The combined proteomes were digested with trypsin protease to produce probe-modified peptides, followed by enrichment and purification by avidin affinity chromatography. Probe-modified peptides were resolved, identified, and quantified by high-resolution liquid chromatography-tandem mass spectrometry (LC-MS/MS). Resultant data were analyzed as previously described^[8a, 10a]. Table 2, below, lists sites of modification targeted by sulfonyl-triazole compounds HHS-0101, HHS-0201, HHS-0301, HHS-0401, and HHS-0701. The format of the table is as follows: protein Uniprot accession number (see uniprot.org); tyrosine site (amino acid position) modified; treatment (sulfonyl-triazole compound identification number, followed by Y (where if multiple compounds modify the same site, the compounds are separated by vertical lines).

Another experiment deals with T1, Q12931 (Homo sapiens, UniProt Q12931).
T1 construct: performing SuTEx compound screening directly in cells; endogenous in cells; host or cells: DM93 cells (SILAC)
Description: SILAC LC-MS ABPP. Type of experiment: cell-based. As to conditions: 25 μM 2 h, live DM93 cells. The gist of the method:
(§3)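 Readout is SILAC heavy/light LC-MS/MS quantification of HHS-475-labelled tyrosine peptides, reflecting blockade of probe labelling by ligand. DM93 cells were pretreated with 25 μM SuTEx ligand (heavy) or DMSO (light) for 2 h at 37 °C, then probed with 100 μM HHS-475 for 2 h.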

In the next experiment the target is T2, P50502 (Homo sapiens, UniProt P50502).
T2 construct: endogenous in cells; host or cells: DM93 cells (SILAC)
Description: SILAC LC-MS ABPP. Type of experiment: cell-based. As to conditions: 25 μM 2 h, live DM93 cells. The method in brief:
as §3

A further experiment concerns the target T3, P50851 (Homo sapiens, UniProt P50851).
T3 construct: Probe-modified proteins from the soluble fraction were conjugated to a desthiobiotin-azide tag; endogenous in cells; host or cells: DM93 cells (SILAC)
Description: SILAC LC-MS ABPP. Type of experiment: cell-based. Particulars: 25 μM 2 h, live DM93 cells. The gist of the method: as §3

Experiment [1] addresses T4, Fumarylacetoacetase (FAH) (Homo sapiens, UniProt P16930).
T4 construct: FLAG; host or cells: HEK293T
Description: gel-based ABPP, HHS-475 probe, HEK293T cells expressing recombinant FAH. Type of experiment: cell-based. Particulars: live HEK293T cells, ligand 25 μM or varying, 2 h; HHS-475 100 μM. As for the experimental part: HEK293T cells at 30-50% confluency were transfected with 2.6 μg of FAH or PTGR2 plasmid DNA in a serum-free media/polyethyleneimine solution for 48 hrs. The cells were washed once with warm, sterile DPBS (1×, 5 mL), and then 10 mL of serum-free media (supplemented with 1% L-glutamine) containing either DMSO or SuTEx fragment (in DMSO) was added. After 2 hrs, the cells were treated with 100 μM of SuTEx alkyne probe (HHS-475, 10 μL of 1000× DMSO stock) and incubated for an additional 2 hrs. The media was aspirated and cells washed with cold PBS (5 mL) and harvested. Cells were spun at 500×g for 5 min at 4° C. and supernatant was removed. Pellets were resuspended in 1 mL of cold DPB S and spun at 1,400×g for 3 min at 4° C. and supernatant was removed. […] The samples were analyzed by SDS-PAGE (30 μL) and imaged by in-gel fluorescence scanning.
Competitive gel-based chemoproteomic assays were performed using recombinant proteins from select targets to verify our LC-MS findings. […] Quantitative chemical proteomic studies identified HHS-0401 as a ligand for the Y244 site of FAH. These findings were confirmed by treating HEK293T cells expressing recombinant FAH with SuTEx ligands (25 μM, 2 hours, 37° C.) followed by labeling with HHS-475 probe (100 μM, 2 hours, 37° C.), cell lysis, and conjugation with rhodamine azide by CuAAC to visualize probe-modified proteins using in-gel fluorescence scanning.

Another experiment has as its system Q5VTE0. Description: SILAC LC-MS ABPP. As to conditions: 25 μM 2 h, live DM93 cells. Type of experiment: cell-based, human. How it is done: as §1, §2

T4 sequence (P16930 whole entry): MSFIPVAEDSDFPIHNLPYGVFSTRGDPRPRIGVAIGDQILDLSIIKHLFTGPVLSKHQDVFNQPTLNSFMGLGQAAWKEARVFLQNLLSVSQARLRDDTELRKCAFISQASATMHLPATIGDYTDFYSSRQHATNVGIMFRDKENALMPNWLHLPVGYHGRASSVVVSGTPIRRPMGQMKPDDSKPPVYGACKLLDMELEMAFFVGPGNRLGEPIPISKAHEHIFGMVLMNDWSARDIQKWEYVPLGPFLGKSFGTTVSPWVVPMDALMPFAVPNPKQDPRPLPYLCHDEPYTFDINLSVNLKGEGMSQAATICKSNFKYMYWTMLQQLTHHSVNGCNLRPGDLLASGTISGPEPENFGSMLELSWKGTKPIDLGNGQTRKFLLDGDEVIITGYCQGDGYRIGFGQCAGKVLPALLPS
T3 sequence (P50851 whole entry): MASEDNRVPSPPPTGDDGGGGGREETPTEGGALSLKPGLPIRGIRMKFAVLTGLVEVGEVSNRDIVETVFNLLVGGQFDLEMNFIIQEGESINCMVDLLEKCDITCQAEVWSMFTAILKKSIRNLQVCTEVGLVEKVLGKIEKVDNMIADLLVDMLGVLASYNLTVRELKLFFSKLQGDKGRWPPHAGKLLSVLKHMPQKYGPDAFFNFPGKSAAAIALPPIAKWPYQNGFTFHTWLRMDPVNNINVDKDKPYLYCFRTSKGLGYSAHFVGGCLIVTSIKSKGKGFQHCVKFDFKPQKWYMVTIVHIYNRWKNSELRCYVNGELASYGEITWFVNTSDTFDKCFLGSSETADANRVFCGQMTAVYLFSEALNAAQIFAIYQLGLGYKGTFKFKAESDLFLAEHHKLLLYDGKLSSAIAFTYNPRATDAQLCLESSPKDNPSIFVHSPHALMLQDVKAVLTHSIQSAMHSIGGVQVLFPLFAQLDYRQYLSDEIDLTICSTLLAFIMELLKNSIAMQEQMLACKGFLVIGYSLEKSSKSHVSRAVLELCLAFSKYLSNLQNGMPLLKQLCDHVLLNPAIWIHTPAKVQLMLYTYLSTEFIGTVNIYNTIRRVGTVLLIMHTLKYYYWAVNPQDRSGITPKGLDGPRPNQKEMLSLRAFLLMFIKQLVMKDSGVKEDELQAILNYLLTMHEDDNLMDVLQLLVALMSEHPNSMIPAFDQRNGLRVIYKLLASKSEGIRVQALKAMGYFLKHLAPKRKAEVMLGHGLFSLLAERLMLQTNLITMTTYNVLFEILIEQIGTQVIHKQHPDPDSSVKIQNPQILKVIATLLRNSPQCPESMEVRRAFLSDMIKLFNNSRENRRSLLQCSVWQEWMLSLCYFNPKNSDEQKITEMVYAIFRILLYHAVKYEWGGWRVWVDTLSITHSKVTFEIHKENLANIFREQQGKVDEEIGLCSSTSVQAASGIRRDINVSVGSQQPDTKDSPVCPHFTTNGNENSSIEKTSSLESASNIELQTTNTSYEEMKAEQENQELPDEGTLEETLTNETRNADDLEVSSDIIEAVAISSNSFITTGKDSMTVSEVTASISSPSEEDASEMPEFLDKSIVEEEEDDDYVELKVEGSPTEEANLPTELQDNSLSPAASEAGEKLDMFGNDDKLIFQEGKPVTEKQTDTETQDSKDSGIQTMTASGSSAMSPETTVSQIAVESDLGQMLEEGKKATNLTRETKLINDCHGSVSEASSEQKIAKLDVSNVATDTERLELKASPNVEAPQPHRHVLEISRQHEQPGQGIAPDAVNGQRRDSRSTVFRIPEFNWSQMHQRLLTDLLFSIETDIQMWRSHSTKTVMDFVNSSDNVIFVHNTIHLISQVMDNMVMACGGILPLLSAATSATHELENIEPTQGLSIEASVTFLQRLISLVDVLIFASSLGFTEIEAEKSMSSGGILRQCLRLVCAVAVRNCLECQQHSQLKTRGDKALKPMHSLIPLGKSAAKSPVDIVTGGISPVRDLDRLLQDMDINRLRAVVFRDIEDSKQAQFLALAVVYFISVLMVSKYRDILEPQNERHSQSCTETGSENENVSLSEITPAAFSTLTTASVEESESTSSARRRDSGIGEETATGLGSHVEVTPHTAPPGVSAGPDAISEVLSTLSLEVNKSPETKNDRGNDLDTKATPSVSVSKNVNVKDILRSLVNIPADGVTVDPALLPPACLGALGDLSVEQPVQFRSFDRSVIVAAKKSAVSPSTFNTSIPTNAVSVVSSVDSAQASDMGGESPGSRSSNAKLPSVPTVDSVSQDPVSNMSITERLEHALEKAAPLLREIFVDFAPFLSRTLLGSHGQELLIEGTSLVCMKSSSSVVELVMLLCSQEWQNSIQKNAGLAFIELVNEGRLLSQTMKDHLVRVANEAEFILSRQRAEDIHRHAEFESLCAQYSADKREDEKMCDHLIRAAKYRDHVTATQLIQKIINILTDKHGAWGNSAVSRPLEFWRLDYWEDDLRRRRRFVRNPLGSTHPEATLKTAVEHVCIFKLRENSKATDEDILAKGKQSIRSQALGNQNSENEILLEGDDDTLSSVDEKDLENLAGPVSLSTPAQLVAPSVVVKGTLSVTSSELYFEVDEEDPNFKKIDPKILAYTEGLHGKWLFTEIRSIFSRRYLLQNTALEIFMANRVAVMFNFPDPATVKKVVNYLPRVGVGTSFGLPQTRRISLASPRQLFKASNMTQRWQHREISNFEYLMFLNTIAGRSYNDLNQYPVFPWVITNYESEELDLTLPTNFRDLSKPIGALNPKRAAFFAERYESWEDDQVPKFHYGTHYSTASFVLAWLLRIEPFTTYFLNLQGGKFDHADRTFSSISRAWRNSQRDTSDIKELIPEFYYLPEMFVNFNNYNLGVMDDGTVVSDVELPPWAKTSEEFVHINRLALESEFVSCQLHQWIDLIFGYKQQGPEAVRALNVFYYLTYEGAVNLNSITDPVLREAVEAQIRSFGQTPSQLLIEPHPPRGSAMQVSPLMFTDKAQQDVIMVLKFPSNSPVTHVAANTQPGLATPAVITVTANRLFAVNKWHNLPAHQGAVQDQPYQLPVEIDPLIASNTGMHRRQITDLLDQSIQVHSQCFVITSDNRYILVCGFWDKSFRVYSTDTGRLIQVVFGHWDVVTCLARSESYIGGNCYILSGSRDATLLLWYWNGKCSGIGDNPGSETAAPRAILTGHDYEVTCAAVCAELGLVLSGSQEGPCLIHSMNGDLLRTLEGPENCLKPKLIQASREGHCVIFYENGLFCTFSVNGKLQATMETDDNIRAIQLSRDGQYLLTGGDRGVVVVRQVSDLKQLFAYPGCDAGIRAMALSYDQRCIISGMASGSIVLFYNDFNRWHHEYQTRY
T1 sequence (Q12931 60-704): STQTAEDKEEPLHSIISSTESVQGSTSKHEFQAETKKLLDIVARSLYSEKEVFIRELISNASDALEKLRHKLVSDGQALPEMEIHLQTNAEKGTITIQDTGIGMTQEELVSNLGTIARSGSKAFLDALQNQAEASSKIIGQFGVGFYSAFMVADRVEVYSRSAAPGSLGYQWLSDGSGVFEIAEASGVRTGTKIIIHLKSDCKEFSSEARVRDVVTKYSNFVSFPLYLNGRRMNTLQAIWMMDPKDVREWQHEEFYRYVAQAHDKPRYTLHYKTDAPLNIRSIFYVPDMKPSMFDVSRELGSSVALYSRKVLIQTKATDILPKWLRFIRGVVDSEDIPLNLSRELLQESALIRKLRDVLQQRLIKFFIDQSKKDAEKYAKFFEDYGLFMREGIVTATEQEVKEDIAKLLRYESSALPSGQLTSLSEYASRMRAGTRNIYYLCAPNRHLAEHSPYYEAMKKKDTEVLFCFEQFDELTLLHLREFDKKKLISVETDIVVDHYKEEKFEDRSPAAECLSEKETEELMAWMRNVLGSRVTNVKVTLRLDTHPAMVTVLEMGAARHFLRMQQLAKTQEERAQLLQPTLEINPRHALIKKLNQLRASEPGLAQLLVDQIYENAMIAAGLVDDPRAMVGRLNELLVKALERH
T2 sequence (P50502 whole entry): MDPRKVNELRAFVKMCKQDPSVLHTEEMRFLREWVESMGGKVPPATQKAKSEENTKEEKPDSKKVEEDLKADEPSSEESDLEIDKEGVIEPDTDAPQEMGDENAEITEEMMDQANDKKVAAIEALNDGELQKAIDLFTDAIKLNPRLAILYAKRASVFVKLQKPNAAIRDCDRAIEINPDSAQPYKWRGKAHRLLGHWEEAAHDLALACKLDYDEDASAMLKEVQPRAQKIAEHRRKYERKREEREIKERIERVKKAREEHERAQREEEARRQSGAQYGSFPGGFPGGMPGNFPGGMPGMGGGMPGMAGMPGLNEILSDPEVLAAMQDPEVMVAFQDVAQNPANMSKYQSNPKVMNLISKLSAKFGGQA

`O=C(NC1CCCCC1)c1ccc(S(=O)(=O)n2cncn2)cc1` [HHS-0301, 4-((1H-1,2,4-triazol-1-yl)sulfonyl)-N-cyclohexylbenzamide]: in the experiment with Q9Y5K3, the “liganded tyrosine site 173” value is “HHS0301.Y (tyrosine sites that showed >80% reductions (SR >5) in probe labeling in cells treated with compounds (liganded sites))”.

As for `O=C(c1ccc(S(=O)(=O)n2cncn2)cc1)N1CCC(c2ccccc2)CC1` [HHS-0701, (4-((1H-1,2,4-triazol-1-yl)sulfonyl)phenyl)(4-phenylpiperidin-1-yl)methanone], at Q12931, the “liganded tyrosine site 559” value was “HHS0701.Y (tyrosine sites that showed >80% reductions (SR >5) in probe labeling in cells treated with compounds (liganded sites))”.

As for `O=C(NCC1CC1)c1ccc(S(=O)(=O)n2cncn2)cc1` [HHS-0201, 4-((1H-1,2,4-triazol-1-yl)sulfonyl)-N-(cyclopropylmethyl)benzamide], the “liganded tyrosine site 213” value at P50502 is reported as “HHS0201.Y (tyrosine sites that showed >80% reductions (SR >5) in probe labeling in cells treated with compounds (liganded sites))”.

Consider `O=C(NCc1ccccc1)c1ccc(S(=O)(=O)n2cncn2)cc1` [HHS-0401, 4-((1H-1,2,4-triazol-1-yl)sulfonyl)-N-benzylbenzamide], for which the “liganded tyrosine site 2656” value at P50851 is listed as “HHS0401.Y (tyrosine sites that showed >80% reductions (SR >5) in probe labeling in cells treated with compounds (liganded sites))”. The “blockade of HHS-475 labeling of FAH” value in experiment [1] is given as “blocked HHS-475 labeling of FAH; also recorded: competing probe labeling of recombinant FAH in a concentration-dependent manner”.

Take `O=C(NC1CC1)c1ccc(S(=O)(=O)n2cncn2)cc1` [HHS-0101, 4-((1H-1,2,4-triazol-1-yl)sulfonyl)-N-cyclopropylbenzamide]: the “liganded tyrosine site 183” value in the experiment with Q5VTE0 was “HHS0101.Y (tyrosine sites that showed >80% reductions (SR >5) in probe labeling in cells treated with compounds (liganded sites))”.
